Reference: ChEMBL document CHEMBL1201862, “PubChem BioAssay data set” (2004)
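All cell lines were grown in 96-well plates and treated with compound for 48 hours. The concentration for 50% growth inhibition is given as GI50.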 Calls of active or inactive are those of the source. No stated cut-off is given here; in the data, active = GI50 up to about 1.1 µM and inactive = higher.

Experiments:
Assay in all cases: NCI-60 cell line screen, 48 h
786-0 = system: 786-0
A498 = system: A498
A549 = system: A549
ACHN = system: ACHN
BT-549 = system: BT-549
CAKI-1 = system: CAKI-1
CCRF-CEM = system: CCRF-CEM
COLO 205 = system: COLO 205
DU-145 = system: DU-145
EKVX = system: EKVX
HCC 2998 = system: HCC 2998
HCT-116 = system: HCT-116
HCT-15 = system: HCT-15
HL-60 = system: HL-60
HOP-62 = system: HOP-62
HOP-92 = system: HOP-92
HT-29 = system: HT-29
Hs-578T = system: Hs-578T
IGROV-1 = system: IGROV-1
K562 = system: K562
KM12 = system: KM12
LOX IMVI = system: LOX IMVI
M14 = system: M14
MCF7 = system: MCF7
MDA-MB-231 = system: MDA-MB-231
MDA-MB-435 = system: MDA-MB-435
MDA-N = system: MDA-N
MOLT-4 = system: MOLT-4
Malme-3M = system: Malme-3M
NCI-H23 = system: NCI-H23
NCI-H460 = system: NCI-H460
NCI-H522 = system: NCI-H522
NCI/ADR-RES = system: NCI/ADR-RES
OVCAR-3 = system: OVCAR-3
OVCAR-4 = system: OVCAR-4
OVCAR-5 = system: OVCAR-5
OVCAR-8 = system: OVCAR-8
PC-3 = system: PC-3
RPMI-8226 = system: RPMI-8226
RXF 393 = system: RXF 393
SF-268 = system: SF-268
SF-295 = system: SF-295
SF-539 = system: SF-539
SK-MEL-28 = system: SK-MEL-28
SK-MEL-2 = system: SK-MEL-2
SK-MEL-5 = system: SK-MEL-5
SK-OV-3 = system: SK-OV-3
SN12C = system: SN12C
SNB-19 = system: SNB-19
SW-620 = system: SW-620
T47D = system: T47D
TK-10 = system: TK-10
U-251 = system: U-251
UACC-257 = system: UACC-257
UACC-62 = system: UACC-62
NCI-H226 = system: NCI-H226
SNB-75 = system: SNB-75
UO-31 = system: UO-31

CC(C)(C)c1ccc2c(c1)C#Cc1cc3c(cc1OCCCO2)C#Cc1cc(C(C)(C)C)ccc1OCCCO3
GI50 (786-0): > 100 µM (inactive) | GI50 (A498): > 100 µM (inactive) | GI50 (A549): > 100 µM (inactive) | GI50 (ACHN): > 100 µM (inactive) | GI50 (BT-549): 1.72 µM (inactive) | GI50 (CAKI-1): > 100 µM (inactive) | GI50 (CCRF-CEM): 42.4 µM (inactive) | GI50 (COLO 205): > 100 µM (inactive) | GI50 (DU-145): > 100 µM (inactive) | GI50 (EKVX): > 100 µM (inactive) | GI50 (HCC 2998): > 100 µM (inactive) | GI50 (HCT-116): > 100 µM (inactive) | GI50 (HCT-15): 2.45 µM | GI50 (HL-60): > 100 µM (inactive) | GI50 (HOP-62): > 100 µM (inactive) | GI50 (HOP-92): > 100 µM (inactive) | GI50 (HT-29): > 100 µM (inactive) | GI50 (Hs-578T): > 100 µM (inactive) | GI50 (IGROV-1): > 100 µM (inactive) | GI50 (K562): > 100 µM (inactive) | GI50 (KM12): > 100 µM (inactive) | GI50 (LOX IMVI): > 100 µM (inactive) | GI50 (M14): > 100 µM (inactive) | GI50 (MCF7): > 100 µM (inactive) | GI50 (MDA-MB-231): > 100 µM (inactive) | GI50 (MDA-MB-435): > 100 µM (inactive) | GI50 (MDA-N): > 100 µM (inactive) | GI50 (MOLT-4): > 100 µM (inactive) | GI50 (Malme-3M): > 100 µM (inactive) | GI50 (NCI-H23): 2.2 µM (inactive) | GI50 (NCI-H460): > 100 µM (inactive) | GI50 (NCI-H522): > 100 µM (inactive) | GI50 (NCI/ADR-RES): 10.6 µM (inactive) | GI50 (OVCAR-3): > 100 µM (inactive) | GI50 (OVCAR-4): > 100 µM (inactive) | GI50 (OVCAR-5): > 100 µM (inactive) | GI50 (OVCAR-8): > 100 µM (inactive) | GI50 (PC-3): > 100 µM (inactive) | GI50 (RPMI-8226): > 100 µM (inactive) | GI50 (RXF 393): > 100 µM (inactive) | GI50 (SF-268): > 100 µM (inactive) | GI50 (SF-295): > 100 µM (inactive) | GI50 (SF-539): > 100 µM (inactive) | GI50 (SK-MEL-28): > 100 µM (inactive) | GI50 (SK-MEL-2): > 100 µM (inactive) | GI50 (SK-MEL-5): > 100 µM (inactive) | GI50 (SK-OV-3): > 100 µM (inactive) | GI50 (SN12C): > 100 µM (inactive) | GI50 (SNB-19): > 100 µM (inactive) | GI50 (SW-620): > 100 µM (inactive) | GI50 (T47D): > 100 µM (inactive) | GI50 (TK-10): > 100 µM (inactive) | GI50 (U-251): > 100 µM (inactive) | GI50 (UACC-257): > 100 µM (inactive) | GI50 (UACC-62): > 100 µM (inactive)

CCOC(=O)/C(C(=O)Nc1ccc(Cl)cc1)=C(/N)N1CCCC1
GI50 (786-0): > 100 µM (inactive) | GI50 (A498): 64.4 µM (inactive) | GI50 (A549): > 100 µM (inactive) | GI50 (ACHN): 45.6 µM (inactive) | GI50 (BT-549): > 100 µM (inactive) | GI50 (CAKI-1): > 100 µM (inactive) | GI50 (CCRF-CEM): > 100 µM (inactive) | GI50 (COLO 205): > 100 µM (inactive) | GI50 (DU-145): > 100 µM (inactive) | GI50 (EKVX): > 100 µM (inactive) | GI50 (HCC 2998): > 100 µM (inactive) | GI50 (HCT-116): 94 µM (inactive) | GI50 (HCT-15): > 100 µM | GI50 (HL-60): > 100 µM (inactive) | GI50 (HOP-62): > 100 µM (inactive) | GI50 (HT-29): > 100 µM (inactive) | GI50 (Hs-578T): > 100 µM (inactive) | GI50 (IGROV-1): 54.2 µM (inactive) | GI50 (K562): 66.7 µM (inactive) | GI50 (KM12): > 100 µM (inactive) | GI50 (LOX IMVI): > 100 µM (inactive) | GI50 (M14): > 100 µM (inactive) | GI50 (MCF7): > 100 µM (inactive) | GI50 (MDA-MB-231): > 100 µM (inactive) | GI50 (MDA-MB-435): > 100 µM (inactive) | GI50 (MDA-N): > 100 µM (inactive) | GI50 (MOLT-4): 71.6 µM (inactive) | GI50 (Malme-3M): > 100 µM (inactive) | GI50 (NCI-H226): > 100 µM (inactive) | GI50 (NCI-H23): > 100 µM (inactive) | GI50 (NCI-H460): > 100 µM (inactive) | GI50 (NCI-H522): > 100 µM (inactive) | GI50 (NCI/ADR-RES): > 100 µM (inactive) | GI50 (OVCAR-3): > 100 µM (inactive) | GI50 (OVCAR-4): 69.3 µM (inactive) | GI50 (OVCAR-5): > 100 µM (inactive) | GI50 (OVCAR-8): > 100 µM (inactive) | GI50 (PC-3): > 100 µM (inactive) | GI50 (RPMI-8226): 97.9 µM (inactive) | GI50 (RXF 393): > 100 µM (inactive) | GI50 (SF-268): > 100 µM (inactive) | GI50 (SF-295): > 100 µM (inactive) | GI50 (SF-539): > 100 µM (inactive) | GI50 (SK-MEL-28): > 100 µM (inactive) | GI50 (SK-MEL-2): 49.3 µM (inactive) | GI50 (SK-OV-3): > 100 µM (inactive) | GI50 (SN12C): > 100 µM (inactive) | GI50 (SNB-19): > 100 µM (inactive) | GI50 (SNB-75): > 100 µM (inactive) | GI50 (SW-620): > 100 µM (inactive) | GI50 (T47D): > 100 µM (inactive) | GI50 (TK-10): > 100 µM (inactive) | GI50 (U-251): > 100 µM (inactive) | GI50 (UACC-257): > 100 µM (inactive) | GI50 (UACC-62): 42 µM (inactive)

CC(=O)Nc1ccc2c(c1)/C(=C\c1ccc([N+](C)(C)C)cc1)c1ccccc1-2
GI50 (786-0): 77.8 µM (inactive) | GI50 (A498): 42.1 µM (inactive) | GI50 (A549): 33.7 µM (inactive) | GI50 (ACHN): > 100 µM (inactive) | GI50 (BT-549): 34.3 µM (inactive) | GI50 (CAKI-1): > 100 µM (inactive) | GI50 (CCRF-CEM): 22.5 µM (inactive) | GI50 (COLO 205): 18 µM (inactive) | GI50 (DU-145): 89.3 µM (inactive) | GI50 (EKVX): 26.5 µM (inactive) | GI50 (HCC 2998): 55.6 µM (inactive) | GI50 (HCT-116): 85.3 µM (inactive) | GI50 (HCT-15): > 100 µM | GI50 (HL-60): 24.8 µM (inactive) | GI50 (HOP-62): 48.3 µM (inactive) | GI50 (HOP-92): 18.1 µM (inactive) | GI50 (HT-29): 35.5 µM (inactive) | GI50 (Hs-578T): 35.4 µM (inactive) | GI50 (IGROV-1): 35.4 µM (inactive) | GI50 (K562): 29.6 µM (inactive) | GI50 (KM12): 31.9 µM (inactive) | GI50 (LOX IMVI): 47.9 µM (inactive) | GI50 (M14): 16 µM (inactive) | GI50 (MCF7): 32 µM (inactive) | GI50 (MDA-MB-231): 4.43 µM (inactive) | GI50 (MDA-MB-435): 36.2 µM (inactive) | GI50 (MDA-N): 32.8 µM (inactive) | GI50 (MOLT-4): 32.9 µM (inactive) | GI50 (Malme-3M): 39.3 µM (inactive) | GI50 (NCI-H226): 23.1 µM (inactive) | GI50 (NCI-H23): 64.4 µM (inactive) | GI50 (NCI-H460): 34.9 µM (inactive) | GI50 (NCI-H522): 32.9 µM (inactive) | GI50 (NCI/ADR-RES): > 100 µM (inactive) | GI50 (OVCAR-3): 36.5 µM (inactive) | GI50 (OVCAR-4): 35.3 µM (inactive) | GI50 (OVCAR-5): 18.8 µM (inactive) | GI50 (OVCAR-8): 41.7 µM (inactive) | GI50 (PC-3): 19.9 µM (inactive) | GI50 (RPMI-8226): 24.9 µM (inactive) | GI50 (RXF 393): > 100 µM (inactive) | GI50 (SF-268): 64.9 µM (inactive) | GI50 (SF-295): 46.1 µM (inactive) | GI50 (SK-MEL-28): 35.5 µM (inactive) | GI50 (SK-MEL-5): 24.2 µM (inactive) | GI50 (SK-OV-3): 61.7 µM (inactive) | GI50 (SN12C): 31 µM (inactive) | GI50 (SNB-19): 23.6 µM (inactive) | GI50 (SNB-75): 28.1 µM (inactive) | GI50 (SW-620): 44.1 µM (inactive) | GI50 (T47D): 23.2 µM (inactive) | GI50 (TK-10): > 100 µM (inactive) | GI50 (U-251): 18.4 µM (inactive) | GI50 (UACC-257): 30.6 µM (inactive) | GI50 (UACC-62): 48 µM (inactive) | GI50 (UO-31): 29.6 µM (inactive)
